Tested on: MV-4-11 cells
Assay: Gene expression microarray analysis (Affymetrix PrimeView) and GSEA
Assay type: cell-based, human
Design: RFU PODN (11730768_x_at) / Fold change /veh PODN (11730768_x_at) / RFU LINC00158 (11744669_a_at) / Fold change /veh LINC00158 (11744669_a_at) / RFU DUSP10 (11751237_a_at) / Fold change /veh DUSP10 (11751237_a_at) / RFU ID3 (11757404_x_at) / Fold change /veh ID3 (11757404_x_at) / RFU PLEKHG5 (11737974_s_at) / Fold change /veh PLEKHG5 (11737974_s_at) / RFU LRRC4B (11730491_at) / Fold change /veh LRRC4B (11730491_at) / RFU GIMAP4 (11747438_a_at) / Fold change /veh GIMAP4 (11747438_a_at) / RFU KRT8 (11758183_x_at) / Fold change /veh KRT8 (11758183_x_at) / RFU CNN1 (11734310_a_at) / Fold change /veh CNN1 (11734310_a_at) / RFU VPS37D (11726825_at) / Fold change /veh VPS37D (11726825_at) / RFU C10orf10 (11716522_x_at) / Fold change /veh C10orf10 (11716522_x_at) / RFU KIR2DL2 /// KIR2DL4 /// KIR2DL5A /// KIR2DL5B /// KIR2DS1 /// KIR2DS2 /// KIR2DS3 /// KIR2DS4 /// KIR3DL3 /// KIR3DL3 /// KIR3DS1 (11738374_at) / Fold change /veh KIR2DL2 /// KIR2DL4 /// KIR2DL5A /// KIR2DL5B /// KIR2DS1 /// KIR2DS2 /// KIR2DS3 /// KIR2DS4 /// KIR3DL3 /// KIR3DL3 /// KIR3DS1 (11738374_at) / RFU C1QL1 (11718748_at) / Fold change /veh C1QL1 (11718748_at) / RFU TMPRSS4 (11747572_a_at) / Fold change /veh TMPRSS4 (11747572_a_at) / RFU HAMP (11756126_x_at) / Fold change /veh HAMP (11756126_x_at) / RFU RNFT2 (11725882_a_at) / Fold change /veh RNFT2 (11725882_a_at) / RFU NR4A2 (11747474_a_at) / Fold change /veh NR4A2 (11747474_a_at) / RFU ABCC12 (11746883_a_at) / Fold change /veh ABCC12 (11746883_a_at) / RFU TMEM136 (11760407_x_at) / Fold change /veh TMEM136 (11760407_x_at) / RFU CLDN22 /// WWC2 (11732394_at) / Fold change /veh CLDN22 /// WWC2 (11732394_at) / RFU HLA-DPB1 (11760878_x_at) / Fold change /veh HLA-DPB1 (11760878_x_at) / RFU SPINT1 (11716480_a_at) / Fold change /veh SPINT1 (11716480_a_at) / RFU GAP43 (11754022_s_at) / Fold change /veh GAP43 (11754022_s_at) / RFU A4GNT (11735810_at) / Fold change /veh A4GNT (11735810_at) / RFU PRB3 (11715151_x_at) / Fold change /veh PRB3 (11715151_x_at) / RFU TUBB4B (11761932_at) / Fold change /veh TUBB4B (11761932_at) / RFU CAPN14 (11732068_a_at) / Fold change /veh CAPN14 (11732068_a_at) / RFU TMCC2 (11721928_a_at) / Fold change /veh TMCC2 (11721928_a_at) / RFU IRGQ (11745062_a_at) / Fold change /veh IRGQ (11745062_a_at) / RFU FAM174B (11720279_a_at) / Fold change /veh FAM174B (11720279_a_at) / RFU TMPRSS4 (11748680_a_at) / Fold change /veh TMPRSS4 (11748680_a_at) / RFU FAM212B (11763350_a_at) / Fold change /veh FAM212B (11763350_a_at) / RFU PLEKHG5 (11743358_a_at) / Fold change /veh PLEKHG5 (11743358_a_at) / RFU ZSCAN30 (11745921_a_at) / Fold change /veh ZSCAN30 (11745921_a_at) / RFU CMKLR1 (11741424_a_at) / Fold change /veh CMKLR1 (11741424_a_at) / RFU LOC101060620 /// MAPK8IP1 (11723275_at) / Fold change /veh LOC101060620 /// MAPK8IP1 (11723275_at) / RFU SPTSSB (11747773_x_at) / Fold change /veh SPTSSB (11747773_x_at) / RFU PRSS12 (11739890_at) / Fold change /veh PRSS12 (11739890_at) / RFU BIN1 (11741810_x_at) / Fold change /veh BIN1 (11741810_x_at) / RFU WNT11 (11732464_a_at) / Fold change /veh WNT11 (11732464_a_at) / RFU C10orf10 (11716521_a_at) / Fold change /veh C10orf10 (11716521_a_at) / RFU C5orf56 (11738089_at) / Fold change /veh C5orf56 (11738089_at) / RFU CYB561 (11721691_x_at) / Fold change /veh CYB561 (11721691_x_at) / RFU ANKRD19P (11752326_a_at) / Fold change /veh ANKRD19P (11752326_a_at) / RFU OR2T12 /// OR2T33 /// OR2T8 (11738714_s_at) / Fold change /veh OR2T12 /// OR2T33 /// OR2T8 (11738714_s_at) / RFU VCAN (11748164_a_at) / Fold change /veh VCAN (11748164_a_at) / RFU JSRP1 (11732532_at) / Fold change /veh JSRP1 (11732532_at) / RFU KRTAP10-11 (11738290_x_at) / Fold change /veh KRTAP10-11 (11738290_x_at) / RFU MYO3A (11730013_a_at) / Fold change /veh MYO3A (11730013_a_at) / RFU EBF3 (11725865_a_at) / Fold change /veh EBF3 (11725865_a_at) / RFU CAMK2N1 (11719241_x_at) / Fold change /veh CAMK2N1 (11719241_x_at) / RFU C5orf56 (11738088_a_at) / Fold change /veh C5orf56 (11738088_a_at) / RFU OLFML3 (11715873_a_at) / Fold change /veh OLFML3 (11715873_a_at) / RFU LOC100653217 /// NTM (11731650_a_at) / Fold change /veh LOC100653217 /// NTM (11731650_a_at) / RFU MAPK11 (11762145_a_at) / Fold change /veh MAPK11 (11762145_a_at) / RFU FIZ1 (11724087_x_at) / Fold change /veh FIZ1 (11724087_x_at) / RFU OASL (11726364_x_at) / Fold change /veh OASL (11726364_x_at) / RFU SOX15 (11748057_x_at) / Fold change /veh SOX15 (11748057_x_at) / RFU CD79A (11719716_a_at) / Fold change /veh CD79A (11719716_a_at) / RFU HIST1H1D (11736915_at) / Fold change /veh HIST1H1D (11736915_at) / RFU CASKIN2 (11723855_a_at) / Fold change /veh CASKIN2 (11723855_a_at) / RFU LOC730098 (11760151_x_at) / Fold change /veh LOC730098 (11760151_x_at) / RFU OR4N2 (11742367_at) / Fold change /veh OR4N2 (11742367_at) / RFU PRRT2 (11749266_a_at) / Fold change /veh PRRT2 (11749266_a_at) / RFU SNX32 (11753110_a_at) / Fold change /veh SNX32 (11753110_a_at) / RFU CDHR5 (11726645_a_at) / Fold change /veh CDHR5 (11726645_a_at) / RFU RCAN1 (11760418_a_at) / Fold change /veh RCAN1 (11760418_a_at) / RFU FAM167A (11723789_a_at) / Fold change /veh FAM167A (11723789_a_at) / RFU FAM26E (11764081_at) / Fold change /veh FAM26E (11764081_at) / RFU ISYNA1 (11749810_s_at) / Fold change /veh ISYNA1 (11749810_s_at) / RFU ACY1 (11761880_at) / Fold change /veh ACY1 (11761880_at) / RFU 11764098_at / Fold change /veh 11764098_at / RFU SAMD14 (11745864_x_at) / Fold change /veh SAMD14 (11745864_x_at) / RFU NPB (11741838_a_at) / Fold change /veh NPB (11741838_a_at) / RFU TMPRSS6 (11731388_a_at) / Fold change /veh TMPRSS6 (11731388_a_at) / RFU KRTAP10-2 (11738614_at) / Fold change /veh KRTAP10-2 (11738614_at) / RFU ARHGAP8 /// PRR5-ARHGAP8 (11727945_x_at) / Fold change /veh ARHGAP8 /// PRR5-ARHGAP8 (11727945_x_at) / RFU KRTAP5-7 /// NADSYN1 (11734609_at) / Fold change /veh KRTAP5-7 /// NADSYN1 (11734609_at) / RFU RASL12 (11751679_a_at) / Fold change /veh RASL12 (11751679_a_at) / RFU CDKN2B (11736163_a_at) / Fold change /veh CDKN2B (11736163_a_at) / RFU PRF1 (11729649_at) / Fold change /veh PRF1 (11729649_at) / RFU, ZNF638 /// ZNF638-IT1 / Fold change vs veh, ZNF638 /// ZNF638-IT1 / RFU, PANK3 / Fold change vs veh, PANK3 / RFU, SH3YL1 / Fold change vs veh, SH3YL1 / RFU, ZEB2 / Fold change vs veh, ZEB2 / RFU, NRIP1 / Fold change vs veh, NRIP1 / RFU, PTTG1IP / Fold change vs veh, PTTG1IP / RFU, CAPN2 / Fold change vs veh, CAPN2 / RFU, MED14 / Fold change vs veh, MED14 / RFU, SNORA58 / Fold change vs veh, SNORA58 / RFU, C1orf63 / Fold change vs veh, C1orf63 / RFU, LRRFIP1 / Fold change vs veh, LRRFIP1 / RFU, NDUFAF7 / Fold change vs veh, NDUFAF7 / RFU, SLC12A2 / Fold change vs veh, SLC12A2 / RFU, IBTK / Fold change vs veh, IBTK / RFU, ESF1 / Fold change vs veh, ESF1 / Fold change vs veh, TMEM50B / RFU, TAOK1 / Fold change vs veh, TAOK1 / RFU, ACBD3 / Fold change vs veh, ACBD3 / RFU, TMA16 / Fold change vs veh, TMA16 / RFU, RWDD3 / Fold change vs veh, RWDD3 / RFU, BCAT1 / Fold change vs veh, BCAT1 / RFU, EDEM3 / Fold change vs veh, EDEM3 / RFU, TMEM33 / Fold change vs veh, TMEM33 / RFU, WDR75 / Fold change vs veh, WDR75 / RFU, AHCTF1 / Fold change vs veh, AHCTF1 / RFU, TFRC / Fold change vs veh, TFRC / RFU, ZDHHC17 / Fold change vs veh, ZDHHC17 / RFU, NOM1 / Fold change vs veh, NOM1 / RFU, ARL8B / Fold change vs veh, ARL8B / RFU, ZBTB11 / Fold change vs veh, ZBTB11 / RFU, TAMM41 / Fold change vs veh, TAMM41 / RFU, KIAA1704 /// LOC100996395 / Fold change vs veh, KIAA1704 /// LOC100996395 / RFU, ING1 / Fold change vs veh, ING1 / RFU, TRMT61B / Fold change vs veh, TRMT61B / RFU, FUBP3 / Fold change vs veh, FUBP3 / RFU, TP53 / Fold change vs veh, TP53 / RFU, TNKS2 / Fold change vs veh, TNKS2 / RFU, ZFP14 / Fold change vs veh, ZFP14 / RFU, ACTR2 / Fold change vs veh, ACTR2 / RFU, PPP3R1 / Fold change vs veh, PPP3R1 / RFU, PIK3R1 / Fold change vs veh, PIK3R1 / RFU, HNRNPA1 / Fold change vs veh, HNRNPA1 / RFU, RNF170 / Fold change vs veh, RNF170 / RFU, ZNF28 / Fold change vs veh, ZNF28 / RFU, RNGTT / Fold change vs veh, RNGTT / RFU, OGT / Fold change vs veh, OGT / RFU, BRD1 / Fold change vs veh, BRD1 / RFU, MARS / Fold change vs veh, MARS / RFU, ZNF655 / Fold change vs veh, ZNF655 / RFU, FAHD1 / Fold change vs veh, FAHD1 / RFU, BDP1 / Fold change vs veh, BDP1 / RFU, LRRCC1 / Fold change vs veh, LRRCC1 / RFU, ARID1A / Fold change vs veh, ARID1A / RFU, ZNF146 / Fold change vs veh, ZNF146 / RFU, ZNF330 / Fold change vs veh, ZNF330 / RFU, GPN3 / Fold change vs veh, GPN3 / RFU, C9orf123 / Fold change vs veh, C9orf123 / RFU, N4BP2L2 / Fold change vs veh, N4BP2L2 / RFU, ARFIP1 / Fold change vs veh, ARFIP1 / RFU, FAM179B / Fold change vs veh, FAM179B / RFU, BCL10 / Fold change vs veh, BCL10 / RFU, UHRF1BP1L / Fold change vs veh, UHRF1BP1L / RFU, BET1 / Fold change vs veh, BET1 / RFU, CNOT2 / Fold change vs veh, CNOT2 / RFU, ZNF268 / Fold change vs veh, ZNF268 / Fold change vs veh, ZNF507 / RFU, DGCR2 / Fold change vs veh, DGCR2 / RFU, WDSUB1 / Fold change vs veh, WDSUB1 / Fold change vs veh, HSP90B1 /// MIR3652 / RFU, ADSS / Fold change vs veh, ADSS / RFU, GK / Fold change vs veh, GK / RFU, ZNF148 / Fold change vs veh, ZNF148 / RFU, TAF9 / Fold change vs veh, TAF9 / RFU, SLC1A5 / Fold change vs veh, SLC1A5 / RFU, SLMO2 / Fold change vs veh, SLMO2 / RFU, ABCC4 / Fold change vs veh, ABCC4 / RFU, LOC101060439 /// RAP1B / Fold change vs veh, LOC101060439 /// RAP1B / RFU, RFX7 / Fold change vs veh, RFX7 / RFU, GTPBP10 / Fold change vs veh, GTPBP10 / RFU, CNEP1R1 / Fold change vs veh, CNEP1R1 / RFU, BIVM-ERCC5 /// ERCC5 / Fold change vs veh, BIVM-ERCC5 /// ERCC5 / RFU, ILF3 / Fold change vs veh, ILF3 / RFU 11762660_at / Fold change /veh 11762660_at / RFU VCAN (11757783_s_at) / Fold change /veh VCAN (11757783_s_at) / RFU DDX43 (11728927_at) / Fold change /veh DDX43 (11728927_at) / RFU KRT8 (11758188_x_at) / Fold change /veh KRT8 (11758188_x_at) / RFU NKD1 (11759106_at) / Fold change /veh NKD1 (11759106_at) / RFU SRD5A1 (11742802_a_at) / Fold change /veh SRD5A1 (11742802_a_at) / RFU TPSAB1 /// TPSB2 (11721975_s_at) / Fold change /veh TPSAB1 /// TPSB2 (11721975_s_at) / RFU GSTM3 (11746129_a_at) / Fold change /veh GSTM3 (11746129_a_at) / RFU IL23R (11737362_x_at) / Fold change /veh IL23R (11737362_x_at) / RFU TMEM51 (11727254_a_at) / Fold change /veh TMEM51 (11727254_a_at) / RFU PIWIL2 (11732686_x_at) / Fold change /veh PIWIL2 (11732686_x_at) / RFU ORM1 (11744905_x_at) / Fold change /veh ORM1 (11744905_x_at) / RFU CCDC152 (11743942_at) / Fold change /veh CCDC152 (11743942_at) / RFU ECM1 (11717891_a_at) / Fold change /veh ECM1 (11717891_a_at) / RFU IL23R (11748794_a_at) / Fold change /veh IL23R (11748794_a_at) / RFU TNFAIP8L3 (11732012_x_at) / Fold change /veh TNFAIP8L3 (11732012_x_at) / RFU MBOAT4 (11741988_at) / Fold change /veh MBOAT4 (11741988_at) / RFU 11764193_at / Fold change /veh 11764193_at / RFU TMEM53 (11763286_at) / Fold change /veh TMEM53 (11763286_at) / RFU MAGEB2 (11727129_at) / Fold change /veh MAGEB2 (11727129_at) / RFU TMEM200A (11744735_a_at) / Fold change /veh TMEM200A (11744735_a_at) / RFU CCDC152 (11751479_a_at) / Fold change /veh CCDC152 (11751479_a_at) / RFU FAM211A (11726209_a_at) / Fold change /veh FAM211A (11726209_a_at) / RFU RGS16 (11746705_a_at) / Fold change /veh RGS16 (11746705_a_at) / RFU VCAN (11755009_s_at) / Fold change /veh VCAN (11755009_s_at) / RFU RHOB (11743442_s_at) / Fold change /veh RHOB (11743442_s_at) / RFU RGS16 (11720943_a_at) / Fold change /veh RGS16 (11720943_a_at) / RFU RGS16 (11720944_at) / Fold change /veh RGS16 (11720944_at) / RFU, VPS4B / Fold change vs veh, VPS4B / RFU, CREB1 / Fold change vs veh, CREB1 / RFU, DNAJC13 / Fold change vs veh, DNAJC13 / RFU, GNAQ / Fold change vs veh, GNAQ / RFU, CDK5R1 / Fold change vs veh, CDK5R1 / RFU, ZRANB3 / Fold change vs veh, ZRANB3 / RFU, CUL4A / Fold change vs veh, CUL4A / RFU, CCNY / Fold change vs veh, CCNY / RFU, UFL1 / Fold change vs veh, UFL1 / RFU, COG3 / Fold change vs veh, COG3 / RFU, DIAPH2 / Fold change vs veh, DIAPH2 / RFU, SKA2 / Fold change vs veh, SKA2 / RFU, AFF3 / Fold change vs veh, AFF3 / RFU, LMF1 / Fold change vs veh, LMF1 / RFU, IPO11 / Fold change vs veh, IPO11 / RFU, DFFB / Fold change vs veh, DFFB / RFU, FOXP1 / Fold change vs veh, FOXP1 / RFU, CARD8 / Fold change vs veh, CARD8 / RFU, STRN3 / Fold change vs veh, STRN3 / RFU, ADK / Fold change vs veh, ADK / RFU, RASSF2 / Fold change vs veh, RASSF2 / RFU, WIPF1 / Fold change vs veh, WIPF1 / RFU, LARP1B / Fold change vs veh, LARP1B / RFU, RASA1 / Fold change vs veh, RASA1 / RFU, RB1 / Fold change vs veh, RB1 / RFU, PPFIA1 / Fold change vs veh, PPFIA1 / RFU, MAT2A / Fold change vs veh, MAT2A / RFU, CCT5 / Fold change vs veh, CCT5 / RFU, WDR92 / Fold change vs veh, WDR92 / RFU, CUX1 / Fold change vs veh, CUX1 / RFU, TTC7A / Fold change vs veh, TTC7A / RFU, TMEM135 / Fold change vs veh, TMEM135 / RFU, DEPTOR / Fold change vs veh, DEPTOR / RFU, CPM / Fold change vs veh, CPM / RFU, DNAJB6 / Fold change vs veh, DNAJB6 / RFU, CACNA2D3 / Fold change vs veh, CACNA2D3 / RFU, DTX4 / Fold change vs veh, DTX4 / RFU, TFCP2 / Fold change vs veh, TFCP2 / RFU, GMCL1 /// GMCL1P1 / Fold change vs veh, GMCL1 /// GMCL1P1 / RFU, AEBP2 / Fold change vs veh, AEBP2 / RFU, SNHG1 /// SNORD22 /// SNORD25 /// SNORD26 /// SNORD27 /// SNORD28 /// SNORD29 /// SNORD31 / Fold change vs veh, SNHG1 /// SNORD22 /// SNORD25 /// SNORD26 /// SNORD27 /// SNORD28 /// SNORD29 /// SNORD31 / Fold change (Aza/veh), C12orf56 (ProbeSet 11735607_a_at) / Fold change (ACY-1035/veh), C12orf56 (ProbeSet 11735607_a_at) / Fold change (Aza/veh), FGFR1OP (ProbeSet 11751329_s_at) / Fold change (ACY-1035/veh), FGFR1OP (ProbeSet 11751329_s_at) / Fold change (Aza/veh), VPS36 (ProbeSet 11739960_a_at) / Fold change (ACY-1035/veh), VPS36 (ProbeSet 11739960_a_at) / RFU SYPL1 (11715823_x_at) / Fold change /veh SYPL1 (11715823_x_at) / RFU IGFBP7 (11715501_s_at) / Fold change /veh IGFBP7 (11715501_s_at) / RFU REEP3 (11722064_at) / Fold change /veh REEP3 (11722064_at) / RFU IGLL1 (11728026_x_at) / Fold change /veh IGLL1 (11728026_x_at): dose or concentration left out as unconfirmed
Settings: MV-4-11 cells, 48 hours

Nc1ccc(-c2cccs2)cc1NC(=O)c1ccc2c(c1)cc(C1CC1)n2CCN1CCOCC1 [ACY-1035]
RFU TMPRSS6 (11731388_a_at): 73.78 RFU

— article PMC5218480 (PLoS ONE, 2017)
